Key:
Type in all cases: cell-based
[1] = test system: A549 (human lung adenocarcinoma); test: Cell viability (resazurin) assay, 2D model, A549; conditions: 48 h incubation, three independent experiments, read-out: IC50 ± SEM, A549
Method: (§1) First, the cytotoxic activity of the compounds was investigated in different cancerous and noncancerous cell lines, namely, HT29 (human colon adenocarcinoma), A549 (human lung adenocarcinoma), and RPE-1 (human retinal epithelium). Cisplatin was used as a positive control. Cells were first incubated for 48 h with the complexes before cell viability was measured with a colorimetric resazurin assay.
(§2) Ce ll Culture: T he RPE-1 c ell l ine wa s cul ture d in DME M /F12 med iu m (G ibco) . T h e HT29 c ell line was
culture d in McCoy me dium (Gibco).
(§3) All ce ll line s were co mple me nted wit h 10% o f fetal calf ser um ( Gibco) and 100 U.mL-1 penicillin-
(§4) streptomycin mixture (Gibco) and maintained in a humidiﬁed atmosphere at 37 °C and 5% CO2.
(§5) Cell Viability Assay using a 2D Cellular Model: The cytotoxicity of the compounds was assessed by a
(§6) ﬂuorometric ce ll viability assay using Resazurin (Acros Organics) . Brieﬂy, ce l ls were s ee de d in tri pl ic ate
(§7) in 96-well plates at a 4×10^3 cells/well density in 100 μL Gibco McCoy’s 5A (1X) + GlutaMAX (Modiﬁed
(§8) Medium) with 10 % FBS and 1% Penicillin/Streptomycin. AŌer 24 h, cells were treated with increasing
(§9) concentraƟons of the compo unds and cisplaƟn. DiluƟons for the compounds were prepared f rom 10
(§10) mM stock in DMSO which were diluted to 100 - 0,01 μM with medium. AŌer 48 h of incubaƟon, the
(§11) medium was removed and 100 μL of complete medium containing resazurin (0.2 mg.mL-1 ﬁnal
(§12) concentraƟon) was adde d. AŌer 4 h of incubaƟon at 37 °C, the ﬂuoresc ence signal of the resoruﬁn
(§13) values were then calculated using the GraphPad Prism soŌware.

[2] = test system: HT29 (human colon adenocarcinoma); test: Cell viability (resazurin) assay, 2D model, HT29; conditions: 48 h incubation, three independent experiments, read-out: IC50 ± SEM, HT29
Method: as §1, §2
culture d in McCoy me dium (Gibco).
as §3, §4, §5, §6, §7, §8, §9, §10, §11, §12, §13

[3] = test system: RPE-1 (human retinal epithelium); test: Cell viability (resazurin) assay, 2D model, RPE-1; conditions: 48 h incubation, noncancerous cell line, three independent experiments, read-out: IC50 ± SEM, RPE-1
Method: as §1, §2
culture d in McCoy me dium (Gibco).
as §3, §4, §5, §6, §7, §8, §9, §10, §11, §12, §13

Structure (SMILES) | IC50 [1] [µM] | IC50 [2] [µM] | IC50 [3] [µM]
N.[O]=[Re](=[O])(=[O])[OH] [(NH4)[ReO4]] | > 100 | > 100 | > 100
[Cl][Cu][Cl] [CuCl2] | > 100 | > 100 | > 100
N.N.[Cl][Pt][Cl] [cisplatin] | 10.9 ± 0.17 | 7.84 ± 0.57 | 22.6 ± 2.74

Reference: publication PMC11445722, “Synthesis, Characterization, and Biological Evaluation of Novel [M(η^6-arene)2]^+ (M = Re, ^99mTc) Hosted Terpyridines and Copper Complexes Thereof” (Inorganic Chemistry, 2024)
